Data as given in patent US20240148707A1, “MODULATION OF DRUG-DRUG INTERACTIONS OF VADADUSTAT” (Akebia Therapeutics, Inc., priority 2021, published 2024).
Read-outs that look alike come from different tables or passages of the source.

How the values were obtained:
[1] = Phase I drug-drug interaction study with cyclosporine (Part 1, Arm 1); type: in vivo, human; conditions: for AUC(0-inf) / AUC(0-t) / Cmax: both sexes, human, plasma, fasted
Procedure: A phase I, open-label, 2-part study was conducted in healthy male and female subjects to evaluate the potential for interaction of cyclosporine (Part 1, Arm 1), probenecid (Part 1, Arm 2), and rifampin (Part 2) with vadadustat.
Subjects were randomized in a 1:1 ratio to 1 of 2 dosing sequences (A:B or B:A) to receive vadadustat 300 mg alone and vadadustat 300 mg in combination with oral cyclosporine 500 mg in a crossover design. Study drugs were administered in the morning after at least a 10-hour overnight fast. Subjects remained fasted for at least 4 hours post-dose. • Treatment A: a single oral dose of vadadustat (300 mg) administered as 2×150 mg tablets. • Treatment B: a single oral dose of vadadustat (300 mg) administered as 2×150 mg tablets co-administered with a single oral dose of cyclosporine (500 mg) administered as 5×100 mg capsules.
On the morning of Day 1, subjects received the first treatment (A or B). Following a 7-day washout, subjects crossed over to Period 2 to receive the second treatment of the dosing sequence (A or B) on Day 8.
On each dosing day (Day 1 and Day 8) blood samples for PK analysis were collected up to 48 hours post-dose. Subjects were discharged from the clinical research unit (CRU) on the morning of Day 10, after the final 48-hour post-dose PK sample had been collected. A follow-up phone call was conducted 30 days±2 days after the final dose.

[2] = system: UGT1A1, UGT1A7, UGT1A8 and UGT1A9; assay: UGT isoforms generating the O-glucuronide (in vitro); type: in vitro ADME, human
[3] = Phase I drug-drug interaction study with sevelamer carbonate; type: in vivo, human; conditions: for clearance: read-out: Clearance (ClB) (converted); for Vd: read-out: Volume of distribution (Vc); for Tmax: median (minimum, maximum)
Procedure: A phase I, open-label, fixed-sequence study was conducted in healthy adult subjects to assess the effect of sevelamer carbonate as phosphate binders on the pharmacokinetics of a single dose of vadadustat.
Pharmacokinetics. A predose PK blood sample was collected on Day 1. After each dose of vadadustat administered (Days 1, 3, 5, and 7), blood samples for PK analysis were collected at the following time points: predose and 0.5, 1, 1.5, 2, 3, 4, 6, 9, 12, 16, 24, and 48 hours after each dose of vadadustat. The 48-hour postdose sample was collected before vadadustat administration on Days 3, 5, and 7. The following parameters were calculated and analyzed: AUC0-∞, AUC0-last, Cmax, Tmax, Kel, CIB, Vc/F, and t1/2.
Subjects were dosed approximately at the same designated time on each dosing day, where applicable. Study drugs were administered with approximately 8 ounces (240 mL) of water at room temperature in a seated position. Subjects were instructed to drink the full 8 ounces of water, and not to chew or break the tablets/gelcaps.
A single oral dose of vadadustat 300 mg (2×150 mg tablets) was administered on Days 1, 3, 5, and 7. Phosphate binder that is sevelamer carbonate (1600 mg, 2×800 mg tablets) was administered on Days 3, 5, and 7.
The 9-day treatment period was conducted as follows: • Day 1: vadadustat administered immediately after consuming breakfast. • Day 2: wash-out (no investigational product administration). • Day 3: vadadustat administered concomitantly with the requisite phosphate binder immediately after consuming breakfast. • Day 4: wash-out (no investigational product administration). • Day 5: vadadustat administered in fasted condition and the phosphate binder administered 1 hour later (breakfast must be served within 2 minutes after phosphate binder administration and consumed immediately after it is served). • Day 6: wash-out (no investigational product administration). • Day 7: phosphate binder administered immediately after consuming breakfast; vadadustat administered 2 hours after the phosphate binder was administered. • Day 8: wash-out (no investigational product administration). • Day 9: subjects discharged from the Clinical Research Unit (CRU) after the 48-hour postdose PK blood sample has been collected.

normal rat = assay: Blood erythropoietin concentration increasing action; type: in vivo; conditions: single oral administration
normal rats = assay: Hemoglobin concentration and red blood cell count after repeated dosing; type: in vivo, rat; conditions: repeated oral administration for 14 days
CYP2C8 = target: T1, CYP2C8 (Homo sapiens, UniProt P10632); assay: Enzyme inhibition (in vitro); type: in vitro ADME
T1 sequence (P10632 1-490): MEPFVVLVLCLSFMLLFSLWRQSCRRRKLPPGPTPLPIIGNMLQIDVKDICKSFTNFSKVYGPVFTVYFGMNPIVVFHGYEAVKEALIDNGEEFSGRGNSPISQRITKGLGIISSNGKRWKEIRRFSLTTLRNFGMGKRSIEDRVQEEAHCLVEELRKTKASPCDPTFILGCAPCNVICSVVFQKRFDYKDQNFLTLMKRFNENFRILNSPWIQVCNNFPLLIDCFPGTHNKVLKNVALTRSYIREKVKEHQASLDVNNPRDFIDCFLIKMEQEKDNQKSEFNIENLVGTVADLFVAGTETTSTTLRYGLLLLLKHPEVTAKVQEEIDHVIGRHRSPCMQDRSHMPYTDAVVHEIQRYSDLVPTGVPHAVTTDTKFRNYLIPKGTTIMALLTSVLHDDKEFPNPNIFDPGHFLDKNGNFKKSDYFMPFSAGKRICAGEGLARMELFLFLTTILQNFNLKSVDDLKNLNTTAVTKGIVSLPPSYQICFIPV

[4] = concomitant administration of phosphate binder vs vadadustat alone, ANOVA
[5] = human, plasma, oral, 300 mg, vadadustat 300 mg alone, immediately after breakfast, mean ± SD
[6] = human, plasma, oral, vadadustat 300 mg 2 hours after sevelamer carbonate 1600 mg with breakfast, mean ± SD
[7] = human, plasma, oral, vadadustat 300 mg concomitantly with sevelamer carbonate 1600 mg, immediately after breakfast, mean ± SD
[8] = human, plasma, oral, vadadustat 300 mg fasting, 1 hour prior to sevelamer carbonate 1600 mg, mean ± SD
[9] = vadadustat 300 mg alone, immediately after breakfast, mean ± SD

AUC(0-inf) ([1]; vadadustat 300 mg + cyclosporine 500 mg, single oral doses, read-out: AUCinf, geometric LSM, Treatment V + C): 293 µg·h/mL
AUC(0-t) ([1]; vadadustat 300 mg + cyclosporine 500 mg, single oral doses, read-out: AUClast, geometric LSM, Treatment V + C): 292 µg·h/mL
Cmax ([1]; vadadustat 300 mg + cyclosporine 500 mg, single oral doses, read-out: Cmax, geometric LSM, Treatment V + C): 37100 ng/mL
AUC(0-inf) ([1]; vadadustat 300 mg alone, single oral dose, read-out: AUCinf, geometric LSM, Treatment V): 251 µg·h/mL
AUC(0-t) ([1]; vadadustat 300 mg alone, single oral dose, read-out: AUClast, geometric LSM, Treatment V): 249 µg·h/mL
Cmax ([1]; vadadustat 300 mg alone, single oral dose, read-out: Cmax, geometric LSM, Treatment V): 45400 ng/mL
changes in the Cmax and AUC values ([1]; vadadustat in combination with cyclosporine): no clinically relevant changes
UGT isoforms involved in the generation of the O-glucuronide [2]: UGT1A1, UGT1A7, UGT1A8 and UGT1A9
reduction of vadadustat AUC0-last [3, 4]: about 37%
reduction of vadadustat AUC0-∞ [3, 4]: about 37%
reduction of vadadustat Cmax [3, 4]: about 40%
AUC(0-t) [3, 5]: 185 ± 57.3 µg·h/mL
AUC(0-inf) ([3]; human, plasma, oral, 300 mg, vadadustat 300 mg alone, immediately after breakfast, mean ± SD, read-out: AUC0-∞): 190 ± 57.2 µg·h/mL
clearance [3, 5]: 28.8 mL/min
Vd [3, 5]: 11.5 ± 2.84 L
Tmax ([3]; human, plasma, oral, 300 mg, vadadustat 300 mg alone, immediately after breakfast): 3.97 h
AUC(0-inf) ([3]; human, plasma, oral, concurrent vadadustat and sevelamer carbonate, read-out: geometric LS mean AUC0-∞): 114 µg·h/mL
AUC(0-t) [3, 6]: 151 ± 57.5 µg·h/mL
AUC(0-inf) ([3]; human, plasma, oral, vadadustat 300 mg 2 hours after sevelamer carbonate 1600 mg with breakfast, mean ± SD, read-out: AUC0-∞): 154 ± 57.8 µg·h/mL
clearance [3, 6]: 38.3 mL/min
half-life ([3]; human, plasma, oral, vadadustat 300 mg 2 hours after sevelamer carbonate 1600 mg with breakfast, mean ± SD, read-out: Elimination half-life (t1/2) (converted)): 5.1 ± 0.97 h
Vd [3, 6]: 16.4 ± 7.04 L
Tmax ([3]; human, plasma, oral, vadadustat 300 mg 2 hours after sevelamer carbonate 1600 mg with breakfast): 2.99 h
AUC(0-t) [3, 7]: 121 ± 50.4 µg·h/mL
AUC(0-inf) ([3]; human, plasma, oral, vadadustat 300 mg concomitantly with sevelamer carbonate 1600 mg, immediately after breakfast, mean ± SD, read-out: AUC0-∞): 124 ± 51 µg·h/mL
clearance [3, 7]: 48 mL/min
Cmax ([3]; human, plasma, oral, vadadustat 300 mg concomitantly with sevelamer carbonate 1600 mg, immediately after breakfast, mean ± SD, read-out: Cmax): 16600 ± 5750 ng/mL
Vd [3, 7]: 19.4 ± 10.1 L
Tmax ([3]; human, plasma, oral, vadadustat 300 mg concomitantly with sevelamer carbonate 1600 mg, immediately after breakfast): 3.49 h
AUC(0-t) [3, 8]: 152 ± 46.2 µg·h/mL
AUC(0-inf) ([3]; human, plasma, oral, vadadustat 300 mg fasting, 1 hour prior to sevelamer carbonate 1600 mg, mean ± SD, read-out: AUC0-∞): 156 ± 48.5 µg·h/mL
clearance [3, 8]: 35.7 mL/min
Cmax ([3]; human, plasma, oral, vadadustat 300 mg fasting, 1 hour prior to sevelamer carbonate 1600 mg, mean ± SD, read-out: Cmax): 31300 ± 10600 ng/mL
Vd [3, 8]: 13.6 ± 5.04 L
Tmax ([3]; human, plasma, oral, vadadustat 300 mg fasting, 1 hour prior to sevelamer carbonate 1600 mg): 1.49 h
Cmax [3, 9]: 26700 ± 6610 ng/mL
Elimination half-life (t1/2) [3, 9]: 4.81 ± 1.15 h
Elimination half-life (t1/2) ([3]; vadadustat 300 mg concomitantly with sevelamer carbonate 1600 mg, immediately after breakfast, mean ± SD): 4.70 ± 0.90 h
inhibitory effect on CYP2C8 (CYP2C8): inhibitory effect
SMILES: O=C(O)CNC(=O)c1ncc(-c2cccc(Cl)c2)cc1O [Compound 1, {[5-(3-chlorophenyl)-3-hydroxypyridine-2-carbonyl]amino}acetic acid]
tolerability ([1]; during treatment with cyclosporine, healthy subjects): tolerated
changes in vadadustat exposure ([3]; vadadustat administered 1 hour prior to sevelamer carbonate): within the prespecified no-effect boundaries of 80% to 125%
changes in vadadustat exposure ([3]; vadadustat administered 2 hours after sevelamer carbonate): within the prespecified no-effect boundaries of 80% to 125%
blood erythropoietin levels (normal rat): elevated blood erythropoietin levels
hemoglobin concentration (normal rats): increasing
red blood cell count (normal rats): increasing
